Measured values as given in patent US20260286322A1, “PROTEIN TYROSINE P[…] DOMAIN PEPTIDE DIMER FOR NERVOUS SYSTEM REPAIR” (NervGen Pharma Corp., priority 2023, published 2026).

System: SCI rats
Experiment: Percentage of SCI rats reaching predefined BBB and/or bladder score thresholds at end of study
Format: in vivo, rat
Description: In this study, the effects of Compound 8 in improving the recovery of open field locomotor performance and bladder function in the SCI rats were further evaluated in comparison with Compound 4 by assessing the BBB scores and bladder scores according to the methods described in Example 3.
In this assessment, 12-13 rats were included in each of the following groups (1) Control group 1: SCI+saline alone; (2) Control group 2: SCI+Compound 4 in saline; (3) Testing group: SCI+Compound 8. The treatment was started on day 1 post-injury and continued through (last dose administered on) day 49 post-injury. The post-treatment observation period commenced on day 50 post-injury and continued until the end of study on day 84 post-injury.
At the end of the study, the performance of Compound 8 was evaluated in comparison with Compound 4 and saline alone by calculating the percentages of animals achieving predefined thresholds of functional improvement in the following categories: (i) Simultaneous improvement in BBB and bladder scores, (ii) Improvement in the locomotor function (BBB score) alone but not the in the bladder score, (iii) Improvement in the bladder score alone but not in the BBB score. FIG. 16 depicts the percentage of rats in each of these three categories, as annotated on the X-axis. An additional group (annotated as “Combined”) represents the combined percentage of rats achieving improvement in any of the first three categories for each treatment cohort (saline alone, Compound 4, and Compound 8). […]

Substance: TAT-Cys-rodent PTPRS wedge domain homodimer [Compound 8]
- percentage of rats reaching BBB score of 11 alone (end of study): about 8%
- percentage of rats with BBB score of 11 and bladder score of 2 or less simultaneously (end of study): about 40%
- percentage of rats with BBB score of at least 10 and bladder score of 2 or less simultaneously (end of study (day 84)): ~50%
- percentage of rats with improvement in the BBB score only (at least 10, no bladder score improvement) (end of study (day 84)): about 15%
- percentage of rats with improvement in bladder-only scores (2 or less, no BBB improvement) (end of study (day 84), BBB threshold 10): about 8%
- combined rate of functional improvement (simultaneous, BBB only and bladder only combined) (end of study (day 84), thresholds BBB at least 10, bladder 2 or less): about 70%
- combined rate of functional improvement (BBB 11 only, bladder 2 or lower only, and both) (end of study, thresholds BBB 11, bladder 2 or lower): about 60%
